Holding throughout (assay): NCI-60 cell line screen, 48 h
Test [1] relates to TK-10 renal.
The test system of test [2] is SK-MEL-5 melanoma.
Test [3] has as its system M14 melanoma.
The test system of test [4] is ACHN renal.
Test [5] has as its system OVCAR-3 ovarian.
Test [6] relates to MDA-MB-231 breast.
In test [7] the test system is BT-549 breast.
Test [8] deals with UACC-257 melanoma.
Test [9] concerns UO-31 renal.
For test [10], the system named is HOP-92 NSCLC.

Structures are written as SMILES.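 Cells were grown in 96-well plates and exposed to each compound for 48 hours at five concentrations; endpoints were interpolated linearly between bracketing concentrations, or set to the highest concentration if not reached. GI50 marks 50% less growth. The concentration for full growth arrest is given as TGI.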

As for `CCOC(=O)c1cnc(SCc2ccc(Cl)c(Cl)c2)nc1N1CC1`, the GI50 was 3.87 µM in test [1]; 3.39 µM in [2]; 2.89 µM in test [3]; 3.12 µM in test [4]; 2.63 µM in test [5]; 6.12 µM in test [6]. Also, the GI50 in test [7] is 2.88 µM; in test [8], 4.78 µM; in test [9] it was 1.87 µM. The TGI came out at 15.2 µM in [1]; 12.6 µM in test [2]; 11.7 µM in test [3]; 13.2 µM in test [4]; 7 µM in test [5]; 27.2 µM in test [6]. Besides, the TGI in test [7] is 13.6 µM; in test [8], 19.8 µM; in test [9], 7.63 µM.
`O=[N+]([O-])c1ccc(N/N=C\c2cc(Cl)ccc2O)nc1`: the GI50 in test [1] was 2 µM; in test [2], 1.81 µM; in test [3], 1.19 µM; in test [4] it was 0.696 µM; in [5], 0.42 µM; in test [6] it was 3.88 µM. The GI50 in test [10] is 6.68 µM; in [7] it was 3.23 µM; in test [8], 1.82 µM; in test [9], 0.3 µM. The TGI in test [1] turned out to be 23.6 µM; in test [2] it was 8.25 µM; in [3], 7.27 µM; in [4], 39.4 µM; in [5], 12.1 µM; in [6], 33.1 µM. Further, the TGI is above 100 µM in test [10], 14.9 µM in [7], 7.38 µM in test [8] and 5.45 µM in test [9].
For the molecule `COc1cc(O)c(C(=O)/C=C/c2ccccc2)c(OC)c1`, the TGI in [1] is 19.7 µM; in test [2], 24.2 µM; in test [3], 84.1 µM; in [4], 20.8 µM; in test [5] it was 44.7 µM; in test [6], 24.2 µM. Besides, the TGI in test [10] is 14.4 µM; in test [7], 16.2 µM; in [8], 23.6 µM; in test [9] it was 17.6 µM.
Consider `COc1cc(C(=O)O)c([N+](=O)[O-])c(OC)c1OC`, for which the TGI in test [1], in test [2], in test [3], in [4], in test [5] and in [6] was above 100 µM throughout. Moreover, the TGI in [10], in test [7], in test [8] and in test [9] was above 100 µM throughout.
Turning to `ClC(=Nc1cccc2ccccc12)N(c1ccccc1)c1ccccc1`, the TGI in [1], in test [3], in [4], in test [5], in [6] and in [7] was above 100 µM in each case. In addition, the TGI in test [8] and in test [9] was above 100 µM each time.
Regarding `COC(=O)Nc1nc2ccc(C(=O)c3ccc[nH]3)cc2[nH]1`, the TGI in test [1] is above 93.6 µM; in test [3], above 26.9 µM; in test [4], above 100 µM; in test [6], above 100 µM; in test [7] it was above 100 µM.
With `O=C1c2cc3c(cc2-c2c1c1cc(Cl)c(Cl)cc1c(=O)n2CCCn1ccnc1)OCO3`, the GI50 is 0.085 µM in test [1]; below 0.01 µM in test [2]; below 0.01 µM in test [3]; below 0.01 µM in [4]; 0.0425 µM in [5]; 0.0996 µM in [6]. Also, the GI50 in [7] is 0.0114 µM; in test [8], 0.0122 µM; in test [9], below 0.01 µM. The TGI is above 100 µM in [1]; 0.0407 µM in [2]; 11.8 µM in test [3]; 1.09 µM in [4]; 18.8 µM in test [5]; above 100 µM in [6]. Besides, the TGI in [7] was 28.1 µM; in test [8] it was 1.31 µM; in [9] it was above 100 µM.
For `COc1cccc(NC(=O)c2sc3nc4c(cc3c2N)CCCC4)c1`, the GI50 is 2.97 µM in test [1]; 0.303 µM in [2]; 0.953 µM in [4]; 0.329 µM in test [5]; 3.88 µM in [6]; 0.598 µM in test [10]. Moreover, the figures for the GI50 in test [7], in test [8] and in test [9] were 0.497 µM, 0.727 µM and 0.859 µM, respectively. In addition, the TGI in test [1] was 34 µM; in [2], 2.67 µM; in test [4] it was above 100 µM; in test [5], 2.38 µM; in test [6], 26.4 µM; in [10], 24.7 µM. For the same molecule, the results for the TGI in test [7], in [8] and in test [9] were 25.4 µM, above 100 µM and above 100 µM, respectively.
As for `COc1cc(-c2cc(C(=O)N3CCN(C(=O)c4ccccc4NCc4ccco4)CC3)nc3cc(-c4ccccc4)nn23)cc(OC)c1OC`, the GI50 in test [1] was 6.74 µM; in test [2], 1.46 µM; in test [3] it was 2.9 µM; in [4], 6.97 µM; in test [5] it was 1.47 µM; in test [6], 5.11 µM. For the same molecule, the GI50 in test [7] was 4.27 µM; in test [8], 3.92 µM; in [9] it was 3.71 µM. Besides, the TGI is above 100 µM in test [1]; above 100 µM in test [2]; above 75.4 µM in [3]; above 100 µM in test [4]; 6.27 µM in test [5]; above 100 µM in [6]. Besides, the TGI in test [7], in test [8] and in [9] was above 100 µM each time.
Turning to `Cc1ccc(-c2c(C#N)c(N)nc(N3CCOCC3)c2C#N)o1`, the GI50 in test [1] was 35.4 µM; in [2] it was 40.5 µM; in [3] it was 87.9 µM; in [6] it was 21 µM; in test [10], 23.6 µM; in [7] it was 62.9 µM. The GI50 in [8] was 99.8 µM; in test [9] it was 21.2 µM. Besides, the TGI in test [1] is above 100 µM; in test [2], above 100 µM; in test [3] it was above 100 µM; in [6] it was 80.7 µM; in test [10], above 100 µM; in test [7] it was above 100 µM. Moreover, the TGI in test [8] is above 100 µM; in [9], 84 µM.
On to `COc1cc2c3c(n(C)c(=O)c2cc1OC)-c1cc2c(cc1/C3=C\CCCCN)OCO2`, for which the GI50 is 3.95 µM in test [1]; 13.2 µM in test [2]; 5.55 µM in test [3]; 9.66 µM in [4]; 16.9 µM in test [5]; 2.94 µM in test [6]. The GI50 in test [10] is 43.5 µM; in [8], 12.5 µM; in test [9], 3.28 µM. Further, the TGI in [1] is 17.6 µM; in test [2], 27.3 µM; in [3], 19.6 µM; in test [4], 26.3 µM; in [5], 33.4 µM; in test [6], 11.4 µM. Moreover, the values for the TGI in [10], in test [8] and in [9] were above 100 µM, 35.7 µM and 13.5 µM, respectively.
Take `O=C(CCCc1c[nH]c2ccccc12)NC1CC(=O)c2c(Br)sc(Br)c21` (stereo unspecified): the GI50 in test [1] is 26 µM; in [2] it was 14.5 µM; in [4], 16.5 µM; in test [5], 10.4 µM; in test [6], 16.5 µM; in test [10], 17.9 µM. Moreover, the GI50 in [7] was 17.4 µM; in test [8] it was 19.2 µM; in test [9], 22.2 µM. The TGI in test [1] is above 100 µM; in test [2] it was 30 µM; in [4] it was 30.4 µM; in test [5], 29.3 µM; in test [6], 32.1 µM; in test [10] it was 40 µM. Moreover, the TGI is 37.1 µM in test [7], 48.1 µM in test [8] and 63.1 µM in test [9].
Turning to `Cc1ccc2c(c1)NC(c1ccc(C(=O)O)cc1)c1cccn1-2` (stereo unspecified), the TGI in test [1] is above 100 µM; in test [2], above 100 µM; in [3] it was above 100 µM; in test [4] it was 42.6 µM; in [5] it was above 100 µM; in test [6], above 100 µM. Besides, the TGI in test [7] and in test [8] was above 100 µM in each case.
For `CC1(C)N=C(N)N=C(N)N1c1cccc(/C=C/C=C/c2cccc([N+](=O)[O-])c2)c1`, the GI50 in [2] is 2.96 µM; in [3], 13.6 µM; in [4] it was 75.7 µM; in test [5], 1.89 µM; in [6], 10.3 µM; in test [7] it was 6.91 µM. For the same molecule, the GI50 in test [8] is 5.42 µM; in test [9], 55.2 µM. Moreover, the TGI was 12.5 µM in test [2]; 50.1 µM in test [3]; above 100 µM in test [4]; 13.1 µM in [5]; 24.4 µM in test [6]; 23.8 µM in test [7]. The TGI in [8] was 20.2 µM; in test [9] it was above 100 µM.
Regarding `Cc1cc(NC(=O)C2c3ccccc3C(=O)N(CC(C)C)C2c2cccs2)no1` (stereo unspecified), the GI50 in [1] is above 100 µM; in test [2] it was 73.2 µM; in test [4], 55.2 µM; in test [5], 90.1 µM; in test [6], 21.2 µM; in test [10], 18.7 µM. The GI50 was above 100 µM in test [7], above 100 µM in test [8] and 30.2 µM in [9]. The TGI was above 100 µM in test [1]; above 100 µM in test [2]; above 100 µM in test [4]; above 100 µM in test [5]; 93.4 µM in test [6]; 78.2 µM in [10]. Further, the TGI in test [7], in test [8] and in test [9] was above 100 µM in each case.
`O=c1c(Cl)nnc2sc3ccccc3n12`: the GI50 in test [1] was 8.15 µM; in test [2], 37.3 µM; in [3], 22.2 µM; in [4] it was 2.3 µM; in test [5], 34.4 µM; in [6] it was 14.2 µM. Also, the GI50 was 20.6 µM in test [10] and 64.9 µM in test [7]. The TGI is 90.7 µM in test [1]; above 100 µM in test [2]; 91.9 µM in [3]; 9.92 µM in [4]; above 100 µM in [5]; above 100 µM in test [6]. The TGI in [10] and in test [7] was above 100 µM each time.
On to `OB([O][Hg][c]1ccccc1)[O][Hg][c]1ccccc1`, for which the GI50 is 0.538 µM in [2]; 0.283 µM in [3]; 0.493 µM in test [4]; 0.0812 µM in test [5]; 0.628 µM in [6]; 0.185 µM in test [10]. Also, the GI50 in test [7] was 0.226 µM; in [8], 0.317 µM; in [9] it was 0.539 µM. The TGI worked out at 1.85 µM in test [2]; 0.977 µM in test [3]; 1.39 µM in test [4]; 0.213 µM in [5]; 1.89 µM in test [6]; 0.528 µM in test [10]. Moreover, the TGI turned out to be 0.779 µM in test [7], 1.14 µM in test [8] and 1.63 µM in test [9].
In the case of `CC12OC(C(=O)C13CC3)C1C(=O)c3ccccc3C(=O)C12` (stereo unspecified), the GI50 in test [1] is 22.8 µM; in test [3], 41 µM; in test [6], 46.8 µM; in [10], 21.8 µM; in test [7], 36.2 µM; in test [8], 27.7 µM. The GI50 in test [9] is 32.8 µM. In addition, the TGI was 58.8 µM in [1]; above 100 µM in test [3]; above 100 µM in [6]; 60.7 µM in test [10]; 76.9 µM in test [7]; 68.8 µM in test [8]. In test [9], this molecule came in with a TGI above 100 µM.
With `CC(Cc1ccc(Cl)cc1Cl)NO` (stereo unspecified), the TGI in test [1], in test [2], in test [3], in test [4], in [5] and in test [6] was above 100 µM in each case. Also, the TGI in test [7], in test [8] and in test [9] was above 100 µM throughout.

The values are drawn from PubChem BioAssay (NCI).
